In patent US20250059196A1 (SHANGHAI HANSOH BIOMEDICAL CO., LTD., priority 2021, published 2025):

Columns and labels:
[1] = target: MALT1 protease activity in TMD8 cells (substrate BCL-10) (Homo sapiens (Human), UniProt Q9UDY8); assay: Intracellular MALT1 protease activity detection (BCL-10 ELISA in TMD8 cells); assay type: cell-based; conditions: undigested BCL-10 by ELISA, 30 min compound then 2 h stimulation cocktail, read-out: Bcl10 TMD8 IC50
Procedure: By detecting the digestion level of the substrate BCL-10 by MALT1 in TMD8 cells, the inhibitory effect of the compound on MALT1 protease activity in the cellular environment was tested.
The ELISA sandwich method was used to detect the content of undigested BCL-10 protein in cells and determine the inhibitory effect of compounds on intracellular MALT1 protease activity. The highest concentration of the compound detected was 10000 nM, 3-fold dilution, a total of 9 concentrations (10000 nM-1.5 nM). Cells were plated at an appropriate density. Compounds of corresponding concentrations were first added for action for 30 min, and then eBioscience cell stimulation cocktail was added to stimulate the cells for 2 h. Cell lysate was then collected. The cell lysate was added to the assay plate previously coated with recombinant BCL-10 antibody (Abcam, #Ab33905) and incubated at 4° C. overnight. The next day, BCL-10 detection antibody (Santacruz, #Sc-5273HRP) was added and incubated for 2 h, TMB substrate was used for color development for about 30 min, then the color development was terminated, and a microplate reader was used for detection.
2) Curve fitting: Log(inhibitor) vs. response—Variable slope (four parameters) in GraphPad Prism 6 was used to perform fitting equation analysis on compound concentration and corresponding inhibition rate, the curve was fit and compound IC50 value was obtained.
(§1) The fitting calculation equation is Y=Bottom+(Top−Bottom)/(1+10^((Log IC50−X)*HillSlope))

[2] = system: OCI-LY3 cell subcutaneous xenograft tumor; assay: Tumor inhibition in OCI-LY3 subcutaneous xenograft NOG mouse model of human diffuse large B-cell lymphoma; assay type: in vivo; conditions: NOG mice, 30 mg, BID × 4 weeks, oral
Procedure: The efficacy of test drugs was evaluated in OCI-LY3 mouse subcutaneous tumor model of human diffuse large B-cell lymphoma
• 1. Animal: NOG mice, female, 6-8 weeks old, weighing 18-22 grams, a total of 65 mice were needed. Provided by Beijing Vital River Laboratory Animal Technology Co., Ltd. or other qualified suppliers. • 2. Cell: Human diffuse large B-cell lymphoma OCI-LY3 cells were cultured in vitro as monolayers and conventional digestion treatment with trypsin-EDTA was carried out twice a week for passage. When the cell confluence was 80%-90% and the number reached the required number, cells were collected, counted, and inoculated. • 3. Grouping for vaccination: Cells (5×10^6 cells+Matrigel/0.2 ml) were inoculated subcutaneously into each mouse. The growth of animals and transplanted tumors were observed regularly. When the tumor grew to a volume of about 150-200 mm^3, the tumor volume of each mouse was calculated, and the mice were divided into random groups according to tumor volume and body weight. The calculation formula of tumor volume was V=0.5a×b^2, wherein a and b represented the long and short diameters of the tumor, respectively. • 4. Administration: According to the grouping results, the test drug was started to be administered (administration method: oral administration; Administration volume: 10 mL/kg; Administration frequency: 2 times/day; Administration cycle: 28 days; Vehicle: 10% solutol HS15-0.25% CMC-Na). Tumors were measured and weighed twice a week after starting administration of test drugs. • 5. Animals were euthanized after the experiment. • 6. Data processing: The tumor inhibitory efficacy of the compound was evaluated by TGI (%) or relative tumor proliferation rate T/C (%). TGI (%) reflects the tumor growth inhibition rate. Calculation of TGI (%): TGI (%)=[(1−(average tumor volume at the end of administration in a treatment group−average tumor volume at the beginning of administration in the treatment group))/(average tumor volume at the end of administration in the solvent control group−average tumor volume at the beginning of administration in the solvent control group)]×100%.
Relative tumor proliferation rate T/C (%): The calculation formulas are as follows: T/C %=TRTV/CRTV×100% (TRTV: RTV of treatment group; CRTV: RTV of negative control group). The relative tumor volume (RTV) was calculated based on the results of tumor measurement. The calculation formula is RTV=Vt/V0, where V0 is the average tumor volume measured at grouping for administration (i.e. d0), Vt is the average tumor volume at a certain measurement, and TRTV and CRTV take the data on the same day.
After the experiment, the tumor weight was measured, and the T/Cweight percentage was calculated. Tweight and Cweight represented the tumor weight of the administration group and the vehicle control group, respectively.
Remarks: The data in parentheses indicate the tumor volume corresponding to the vehicle group (i.e., the control group) at the corresponding time in this example.

[3] = Pharmacokinetics of oral administration in Balb/C mice; assay type: in vivo; conditions: 30 mg/kg, P.O., plasma
Procedure: Balb/C mice were used as test animals to study the pharmacokinetic behavior of the compound in the plasma of mice after oral administration at a dose of 30 mg/kg.
3 Balb/C mice (3/example), male, from Shanghai Jiesijie Experimental Animal Co., Ltd., animal production license number (SCXK (Shanghai) 2013-0006 N0.311620400001794).
3 Balb/C mice, male; p.o. respectively at a dose of 30 mg/kg and an administration volume of 10 mL/kg after the mice were fasted overnight.
Before and after administration of mice, 0.1 mL of blood was collected from the orbit at 0, 0.5, 1, 2, 4, 6, 8 and 24 h, and placed in EDTA-K2 test tubes, which was centrifuged at 6000 rpm at 4° C. for 6 min to separate plasma which was stored at −80° C.
• 1) 160 μL of acetonitrile was added to 40 μL of plasma sample for precipitation, and same was mixed and centrifuged at 3500×g for 5 to 20 min. • 2) 100 μL of the treated supernatant solution was taken and subjected to LC/MS/MS to analyze the concentrations of the test compounds.
• Liquid phase conditions: Shimadzu LC-20AD pump • Mass spectrometry conditions: AB Sciex API 4000 mass spectrometer • Chromatographic column: Phenomenex Gemiu 5 um C18 50×4.6 mm • Mobile phase: liquid A is 0.1% aqueous formic acid solution, liquid B is acetonitrile • flow rate: 0.8 mL/min • Elution time: 0-4.0 min, the eluent is as follows:
The main pharmacokinetic parameters were calculated using WinNonlin 8.2.

Caco-2 cells = assay: Caco-2 bidirectional permeability test
Procedure: The purpose of this experiment is to test the bidirectional permeability of the compound through the Caco-2 cell model and evaluate whether the compound is transported by efflux transporters.
Liquid chromatography-mass spectrometer, centrifuge, vortexer, pipette, 96-well test plate (HTS Transwell Plate), acetonitrile solution containing internal standard, Caco-2 cells (ATCC), Hank's balance solution (HBSS), fluorescent yellow (LY), dimethyl sulfoxide (DMSO).
108 μL of transport buffer (HBSS containing 10 μM of the example compound) was added to the administration end of A to B. • b. 300 μL of transport buffer (HBSS containing DMSO) was added to the receiving end of A to B. • c. 300 μL of transport buffer (HBSS containing 10 μM example compound) was added to the administration end of A to B. • d. 108 μL of transport buffer (HBSS containing DMSO) was added to the receiving end of A to B. • e. incubation was performed for 90 min. • d. a sample was taken, processed and detected with mass spectrometry.
• Instruments: Liquid Chromatography; • Chromatographic column: Waters XSelect HSS T3 2.5 μm (2.1×50 mm); • Mobile phase: Phase A: 0.1% formic acid in pure water; Phase B: 0.1% formic acid in acetonitrile.
• Instruments: AP16500+liquid chromatography-mass spectrometer; • The ion source is electrospray ionization source (ESI); • The detection method is positive ion detection;
The scanning method is selected reaction monitoring (MRM).

OCI-Ly3 cells = assay: Inhibition of proliferation of OCI-Ly3 cells (CellTiter-Glo); assay type: cell-based, human; conditions: 96 h incubation, read-out: Inhibition test of proliferation of OCI-Ly3 cells IC50
Procedure: The compound's inhibitory effect on the proliferation of TMD8 and OCI-Ly3 cells was evaluated through cell proliferation inhibition experiments.
The compound's inhibitory effect on the proliferation of TMD8 and OCI-Ly3 cells was detected by the CellTiter-Glo method. The highest concentration of the compound detected was 1000 nM, 3-fold dilution, a total of 9 concentrations (1000 nM-0.15 nM). After the cells were plated at an appropriate density, compounds were added the next day and incubated for 96 h before detection using the CellTiter-Glo Luminescent detection kit.
(§2) Log(inhibitor) vs. response—Variable slope (four parameters) in GraphPad Prism 6 was used to perform fitting equation analysis on compound concentration and corresponding inhibition rate, the curve was fit and compound IC50 value was obtained.
as §1

[4] = target: Recombinant human MALT1/MLT protein (Homo sapiens (Human), UniProt Q9UDY8); assay: Inhibitory effect on MALT1 enzyme activity (Ac-LRSR-AMC substrate, fluorescence 460 nm); assay type: biochemical; conditions: 10 nM FL MALT1, Ac-LRSR-AMC substrate, 50 min pre-incubation, 4 h reaction
Chain of Recombinant human MALT1/MLT protein (Q9UDY8 whole entry): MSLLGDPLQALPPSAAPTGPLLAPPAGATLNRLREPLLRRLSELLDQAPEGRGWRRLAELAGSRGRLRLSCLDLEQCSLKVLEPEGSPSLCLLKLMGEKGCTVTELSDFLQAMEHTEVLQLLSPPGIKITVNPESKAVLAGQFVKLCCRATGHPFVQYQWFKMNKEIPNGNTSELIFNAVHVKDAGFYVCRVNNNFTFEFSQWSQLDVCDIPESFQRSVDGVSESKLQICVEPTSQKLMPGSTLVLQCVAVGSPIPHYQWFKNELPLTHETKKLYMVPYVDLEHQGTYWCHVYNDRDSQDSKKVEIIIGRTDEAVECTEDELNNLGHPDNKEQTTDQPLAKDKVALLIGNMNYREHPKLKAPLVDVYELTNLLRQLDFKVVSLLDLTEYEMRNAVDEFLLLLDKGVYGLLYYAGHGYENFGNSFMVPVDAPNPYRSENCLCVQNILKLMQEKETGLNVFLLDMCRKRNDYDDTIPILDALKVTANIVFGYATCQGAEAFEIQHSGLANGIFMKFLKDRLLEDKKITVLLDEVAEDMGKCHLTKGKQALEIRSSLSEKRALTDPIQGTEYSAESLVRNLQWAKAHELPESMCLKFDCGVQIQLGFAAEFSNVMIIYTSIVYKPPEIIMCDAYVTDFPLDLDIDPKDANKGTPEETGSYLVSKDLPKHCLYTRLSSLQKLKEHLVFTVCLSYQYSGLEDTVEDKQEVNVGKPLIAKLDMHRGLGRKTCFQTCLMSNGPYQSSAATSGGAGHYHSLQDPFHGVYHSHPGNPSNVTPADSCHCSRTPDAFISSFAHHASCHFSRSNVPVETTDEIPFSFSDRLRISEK
Procedure: Ac-LRSR-AMC was used as the substrate to test the IC50 of the inhibitory activity of compounds on MALT1 enzyme activity at their Km concentration.
Ac-LRSR-AMC was used as the substrate which was digested by MALT1 to produce products, which produced fluorescence that could be detected at 460 nm. The highest concentration of the compound detected was 1000 nM, 3-fold dilution, a total of 11 concentrations (1000 nM-0.017 nM). The reaction system is 10 nM FL MALT1 protein, […] Ac-LRSR-AMC, 50 mM Tris pH 7.5, 0.6M Citrate, 1 mM DTT, 1 mM EDTA, 0.05% BSA and 1.5% DMSO. The compound and the enzyme were pre-incubated at room temperature for 50 min. The substrate was then added and the reaction was carried out for 4 h.
The original data (460 nm reading) was calculated according to the following formula to obtain the inhibition rate.
as §2, §1

Chain of MALT1 protease activity in TMD8 cells (substrate BCL-10) (Q9UDY8 whole entry): as above

## O=C(Nc1ccnc(C(F)(F)F)c1)c1cnn(-c2ccc3c4c(cccc24)C(=O)N3)c1C(F)(F)F [Example 27]
[1]
  IC50: 0.051 µM
[2]
  TGI (%) Day 28: 93.04%
  Weight Day 28: 20.34 ± 0.78
  ΔT/ΔC(%) Day 28: 19.83%
[2]; vehicle group 1274 ± 82
  Tumor volume (Mean ± SD) Day 28: 230 ± 50 (1274 ± 82) mm^3
[3]
  AUC0-∞: 1,584,433 ng/mL*hr
  AUC(0-t): 1,130,746 ng/mL*h
  Cmax: 71,267 ng/mL
  MRT: 18.7 h
  T1/2: 13.1 h
Caco-2 cells; Caco-2, 10 μM, 90 min, A to B
  Papp A − B: 4.21 10^−6 cm · s^−1
Caco-2 cells; Caco-2, 10 μM, 90 min, B to A
  Papp B − A: 11.52 10^−6 cm · s^−1
Caco-2 cells; Caco-2 efflux ratio
  Papp(B − A)/Papp(A − B): 2.74
OCI-Ly3 cells
  IC50: 0.804 µM
[4]
  IC50: 0.162 µM
